From US20240374738A1, “BIFUNCTIONAL COMPOUND CAPABLE OF DEGRADING RECEPTOR TYROSINE KINASE AND APPLICATION THEREOF” (TAIBIDI PHARMACEUTICAL TECHNOLOGY (SHIJIAZHUANG) CO., LTD., priority 2023, published 2024)

Tests used:
Assay type in all cases: cell-based
MKN45 = assay: Growth inhibition of gastric cancer cells MKN45 (CCK-8); settings: Homo sapiens, MKN-45, half inhibitory concentration, 72 hours
Summary of the method: (§1)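 MKN45 or SNU5 cells in 96-well plates were treated with compound dilution series in triplicate for 72 h. Viability was read by CCK-8 (1 h, absorbance 450 nm), and inhibition was calculated against blank and medium-only controls. IC50 came from concentration-response curves.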

DDR1 = DDR1 (Homo sapiens, UniProt Q08345); assay: Degradation of DDR1 in tumor cell MKN45 (Western blot); parameters: The degradation activity of the compounds against DDR1 in the MKN45 cell line; endogenous in cells; host or cells: MKN45; settings: MKN-45, maximum degradation percentage, MKN45 cells, 24 hours
Summary of the method: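 MKN45 gastric cancer cells were treated with compound dilutions for 24 h at a final DMSO of 0.5%; the 2 mM–200 nM series is the added solution, not the final concentration. DDR1 in lysates was quantified by Western blot, normalized to GAPDH and expressed relative to blank control, giving DC50 and Dmax.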

SNU5 = assay: Growth inhibition of gastric cancer cells SNU5 (CCK-8); settings: Homo sapiens, SNU-5, half inhibitory concentration, 72 hours
Summary of the method: as §1

Chain of DDR1 (Q08345 19-913): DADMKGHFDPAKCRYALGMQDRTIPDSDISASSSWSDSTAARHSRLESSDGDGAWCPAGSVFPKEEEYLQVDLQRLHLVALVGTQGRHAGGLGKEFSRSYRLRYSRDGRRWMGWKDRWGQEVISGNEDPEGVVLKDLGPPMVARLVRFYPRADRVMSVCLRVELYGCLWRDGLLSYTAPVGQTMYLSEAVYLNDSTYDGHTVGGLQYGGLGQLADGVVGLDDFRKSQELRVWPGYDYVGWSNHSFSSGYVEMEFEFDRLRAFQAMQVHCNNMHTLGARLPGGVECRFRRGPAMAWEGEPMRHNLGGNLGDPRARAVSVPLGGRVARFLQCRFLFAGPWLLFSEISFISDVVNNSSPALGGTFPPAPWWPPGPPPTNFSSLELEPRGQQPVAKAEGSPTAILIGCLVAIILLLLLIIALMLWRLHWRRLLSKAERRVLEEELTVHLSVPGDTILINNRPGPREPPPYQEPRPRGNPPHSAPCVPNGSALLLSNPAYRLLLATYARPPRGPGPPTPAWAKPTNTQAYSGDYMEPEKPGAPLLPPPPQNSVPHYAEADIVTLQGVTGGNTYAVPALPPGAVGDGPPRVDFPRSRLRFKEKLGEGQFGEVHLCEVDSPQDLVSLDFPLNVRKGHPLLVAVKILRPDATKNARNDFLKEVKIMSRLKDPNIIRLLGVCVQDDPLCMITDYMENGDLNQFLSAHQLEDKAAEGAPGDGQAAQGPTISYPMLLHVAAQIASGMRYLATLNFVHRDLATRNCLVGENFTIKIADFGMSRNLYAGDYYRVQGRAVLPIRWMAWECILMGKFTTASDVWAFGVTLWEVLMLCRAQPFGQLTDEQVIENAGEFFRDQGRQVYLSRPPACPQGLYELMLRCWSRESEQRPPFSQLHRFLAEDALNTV

| Structure (SMILES) | IC50 (MKN45) [nM] | Dmax (DDR1) [%] | IC50 (SNU5) [nM] |
| --- | --- | --- | --- |
| COc1cc2c(Oc3ccc(NC(=O)C4(C(=O)Nc5ccc(F)cc5)CC4)cc3)ccnc2cc1N1CCC(CN2CCN(CCNc3ccc4c(n3)C(=O)N(C3CCC(=O)NC3=O)C4)CC2)CC1 (stereo not drawn) [TPD12013] | 100 to 500 | > 85 | 100 to 500 |
| COc1cc2c(Oc3ccc(NC(=O)C4(C(=O)Nc5ccc(F)cc5)CC4)cc3)ccnc2cc1N1CCC(CN2CCN(CCNc3nccc4c3CN(C3CCC(=O)NC3=O)C4=O)C(=O)C2)CC1 (stereo not drawn) [TPD12068] | ≤ 100 | 65 to 75 | ≤ 100 |
| COc1cc2c(Oc3ccc(NC(=O)C4(C(=O)Nc5ccc(F)cc5)CC4)cc3)ccnc2cc1N1CCC(CN2C3CC2CN(CCNc2cc4c(cn2)C(=O)N(C2CCC(=O)NC2=O)C4)C3)CC1 (stereo not drawn) [TPD12081] | ≤ 100 | 75 to 85 | ≤ 100 |
| COc1cc2c(Oc3ccc(NC(=O)C4(C(=O)Nc5ccc(F)cc5)CC4)cc3)ccnc2cc1N1CCC(CN2CC3CC(C2)N3CCNc2cc3c(cn2)C(=O)N(C2CCC(=O)NC2=O)C3)CC1 (stereo not drawn) [TPD12082] | 100 to 500 | 65 to 75 | ≤ 100 |
| COc1cc2c(Oc3ccc(NC(=O)C4(C(=O)Nc5ccc(F)cc5)CC4)cc3)ccnc2cc1N1CCC(CN2C3CC2CN(CC(=O)Nc2cc4c(cn2)C(=O)N(C2CCC(=O)NC2=O)C4)C3)CC1 (stereo not drawn) [TPD12083] | ≤ 100 | 65 to 75 | ≤ 100 |
| O=C1CCC(N2Cc3cc(NCCN4C5CC4CN(CC4CCN(c6cc7nccc(Oc8ccc(NC(=O)C9(C(=O)Nc%10ccc(F)cc%10)CC9)cc8)c7cc6F)CC4)C5)ncc3C2=O)C(=O)N1 (stereo not drawn) [TPD12086] | 100 to 500 | 75 to 85 | ≤ 100 |
| O=C1CCC(N2Cc3cc(NC(=O)CN4C5CC4CN(CC4CCN(c6cc7nccc(Oc8ccc(NC(=O)C9(C(=O)Nc%10ccc(F)cc%10)CC9)cc8)c7cc6F)CC4)C5)ncc3C2=O)C(=O)N1 (stereo not drawn) [TPD12088] | 100 to 500 | 65 to 75 | ≤ 100 |
| COc1cc2c(Oc3ccc(NC(=O)C4(C(=O)Nc5ccc(F)cc5)CC4)cc3)ccnc2cc1N1CCC(CN2C[C@@H]3C[C@H]2CN3CCNc2cc3c(cn2)C(=O)N(C2CCC(=O)NC2=O)C3)CC1 (stereo partly drawn) [TPD12096] | ≤ 100 | 65 to 75 | ≤ 100 |
| COc1cc2c(Oc3ccc(NC(=O)C4(C(=O)Nc5ccc(F)cc5)CC4)cc3)ccnc2cc1N1CCC(CN2C[C@H]3C[C@@H]2CN3CCNc2cc3c(cn2)C(=O)N(C2CCC(=O)NC2=O)C3)CC1 (stereo partly drawn) [TPD12097] | ≤ 100 | 65 to 75 | ≤ 100 |
| COc1cc2c(Oc3ccc(NC(=O)C4(C(=O)Nc5ccc(F)cc5)CC4)cc3)ccnc2cc1N1CCC(CN2C[C@@H]3C[C@H]2CN3CC(=O)Nc2cc3c(cn2)C(=O)N(C2CCC(=O)NC2=O)C3)CC1 (stereo partly drawn) [TPD12100] | ≤ 100 | 65 to 75 | ≤ 100 |
| COc1cc2c(Oc3ccc(NC(=O)C4(C(=O)Nc5ccc(F)cc5)CC4)cc3)ccnc2cc1N1CCC(CN2C[C@H]3C[C@@H]2CN3CC(=O)Nc2cc3c(cn2)C(=O)N(C2CCC(=O)NC2=O)C3)CC1 (stereo partly drawn) [TPD12101] | ≤ 100 | > 85 | ≤ 100 |
| O=C1CCC(N2Cc3cc(NC(=O)CN4C[C@@H]5C[C@H]4CN5CC4CCN(c5cc6nccc(Oc7ccc(NC(=O)C8(C(=O)Nc9ccc(F)cc9)CC8)cc7)c6cc5F)CC4)ncc3C2=O)C(=O)N1 (stereo partly drawn) [TPD12102] | ≤ 100 | 75 to 85 | ≤ 100 |
| COc1cc2c(Oc3ccc(NC(=O)C4(C(=O)Nc5ccc(F)cc5)CC4)cc3)ccnc2cc1N1CCC(CN2C[C@H]3C[C@@H]2CN3CCC(=O)Nc2cc3c(cn2)C(=O)N(C2CCC(=O)NC2=O)C3)CC1 (stereo partly drawn) [TPD12110] | ≤ 100 | 75 to 85 | ≤ 100 |
| COc1cc2c(Oc3ccc(NC(=O)C4(C(=O)Nc5ccc(F)cc5)CC4)cc3)ccnc2cc1N1CCC(CN2C3CC2CN(CCC(=O)Nc2cc4c(cn2)C(=O)N(C2CCC(=O)NC2=O)C4)C3)CC1 (stereo not drawn) [TPD12112] | ≤ 100 | 65 to 75 | ≤ 100 |
| COc1cc2c(Oc3ccc(NC(=O)C4(C(=O)Nc5ccc(F)cc5)CC4)cc3)ccnc2cc1N1CCC(CN2C[C@H]3C[C@@H]2CN3CCCNc2cc3c(cn2)C(=O)N(C2CCC(=O)NC2=O)C3)CC1 (stereo partly drawn) [TPD12116] | ≤ 100 | 75 to 85 | ≤ 100 |
| COc1cc2c(Oc3ccc(NC(=O)C4(C(=O)Nc5ccc(F)cc5)CC4)cc3)ccnc2cc1N1CCC(CN2CC3CC(C2)N3CCCNc2cc3c(cn2)C(=O)N(C2CCC(=O)NC2=O)C3)CC1 (stereo not drawn) [TPD12118] | ≤ 100 | 65 to 75 | ≤ 100 |
| COc1cc2c(Oc3ccc(NC(=O)C4(C(=O)Nc5ccc(F)cc5)CC4)cc3)ccnc2c(F)c1N1CCC(CN2C3CC2CN(CCC(=O)Nc2cc4c(cn2)C(=O)N(C2CCC(=O)NC2=O)C4)C3)CC1 (stereo not drawn) [TPD12139] | ≤ 100 | 75 to 85 | ≤ 100 |
| COc1cc2c(Oc3ccc(NC(=O)C4(C(=O)Nc5ccc(F)cc5)CC4)cc3)ccnc2c(F)c1N1CCC(CN2C3CC2CN(CCC(=O)Nc2cccc4c2CN(C2CCC(=O)NC2=O)C4=O)C3)CC1 (stereo not drawn) [TPD12140] | ≤ 100 | 65 to 75 | ≤ 100 |
| O=C1CCC(N2Cc3cc(NC(=O)CCN4CC5CC(C4)N5CC4CCN(c5cc6nccc(Oc7ccc(NC(=O)C8(C(=O)Nc9ccc(F)cc9)CC8)cc7)c6cc5OC(F)(F)F)CC4)ncc3C2=O)C(=O)N1 (stereo not drawn) [TPD12148] | ≤ 100 | 65 to 75 | ≤ 100 |
| O=C1CCC(N2Cc3c(NC(=O)CCN4CC5CC(C4)N5CC4CCN(c5cc6nccc(Oc7ccc(NC(=O)C8(C(=O)Nc9ccc(F)cc9)CC8)cc7)c6cc5OC(F)(F)F)CC4)cccc3C2=O)C(=O)N1 (stereo not drawn) [TPD12149] | ≤ 100 | 75 to 85 | ≤ 100 |
| O=C1CCC(N2Cc3c(C#CCCN4CC5CC(C4)N5CC4CCN(c5cc6nccc(Oc7ccc(NC(=O)C8(C(=O)Nc9ccc(F)cc9)CC8)cc7)c6cc5OC(F)(F)F)CC4)cccc3C2=O)C(=O)N1 (stereo not drawn) [TPD12150] | ≤ 100 | 65 to 75 | 100 to 500 |
| O=C1CCC(N2Cc3cc(NC(=O)CCN4CC5CC(C4)N5CC4CCN(c5cc6nccc(Oc7ccc(NC(=O)C8(C(=O)Nc9ccc(F)cc9)CC8)cc7)c6cc5F)CC4)ncc3C2=O)C(=O)N1 (stereo not drawn) [TPD12162] | ≤ 100 | 65 to 75 | ≤ 100 |
| O=C1CCC(N2Cc3cc(NC(=O)CN4C[C@@H]5C[C@H]4CN5CC4CCN(c5cc6nccc(Oc7ccc(NC(=O)C8(C(=O)Nc9ccc(F)cc9)CC8)cc7)c6cc5F)CC4)ccc3C2=O)C(=O)N1 (stereo partly drawn) [TPD12205] | ≤ 100 | 65 to 75 | ≤ 100 |
| O=C1CCC(N2Cc3cc(NC(=O)CCN4CC5CC(C4)N5CC4CCN(c5cc6nccc(Oc7ccc(NC(=O)C8(C(=O)Nc9ccc(F)cc9)CC8)cc7)c6cc5F)CC4)ccc3C2=O)C(=O)N1 (stereo not drawn) [TPD12215] | ≤ 100 | 75 to 85 | ≤ 100 |
| COc1cc2c(Oc3ccc(NC(=O)C4(C(=O)Nc5ccc(F)cc5)CC4)cc3)ccnc2cc1N1CCC(CN2C[C@@H]3C[C@H]2CN3CC(=O)Nc2ccc3c(c2)CN(C2CCC(=O)NC2=O)C3=O)CC1 (stereo partly drawn) [TPD12216] | 500 to 1000 | > 85 | ≤ 100 |
| COc1cc2c(Oc3ccc(NC(=O)C4(C(=O)Nc5ccc(F)cc5)CC4)cc3)ccnc2cc1N1CCC(CN2C[C@@H]3C[C@H]2CN3CCC(=O)Nc2ccc3c(c2)CN(C2CCC(=O)NC2=O)C3=O)CC1 (stereo partly drawn) [TPD12218] | ≤ 100 | 65 to 75 | ≤ 100 |
| COc1cc2c(Oc3ccc(NC(=O)C4(C(=O)Nc5ccc(F)cc5)CC4)cc3)ccnc2cc1N1CCC(CN2C3CC2CN(CCC#Cc2cccc4c2CN(C2CCC(=O)NC2=O)C4=O)C3)CC1 (stereo not drawn) [TPD12234] | ≤ 100 | 75 to 85 | ≤ 100 |
| O=C1CCC(N2Cc3c(C#CCCN4CC5CC(C4)N5CC4CCN(c5cc6nccc(Oc7ccc(NC(=O)C8(C(=O)Nc9ccc(F)cc9)CC8)cc7)c6cc5F)CC4)cccc3C2=O)C(=O)N1 (stereo not drawn) [TPD12235] | ≤ 100 | 65 to 75 | ≤ 100 |
| COc1cc2c(Oc3ccc(NC(=O)C4(C(=O)Nc5ccc(F)cc5)CC4)cc3)ccnc2cc1N1CCC(CN2C3CC2CN(CCC#Cc2ccc4c(c2)CN(C2CCC(=O)NC2=O)C4=O)C3)CC1 (stereo not drawn) [TPD12236] | ≤ 100 | 75 to 85 | ≤ 100 |
